Test results taken from patent publication US11820766B2, “Monoacylglycerol lipase modulators” (Janssen Pharmaceutica NV, priority 2018, dated 2023).

Biological target: T1, human MGL from HeLa cells (Homo sapiens, UniProt Q99685)
T1 construct: combining endogenously expressed MGL from HeLa cells with test compounds; endogenous in cells; host or cells: HeLa cells / cell homogenates
T1 sequence (Q99685 1-303): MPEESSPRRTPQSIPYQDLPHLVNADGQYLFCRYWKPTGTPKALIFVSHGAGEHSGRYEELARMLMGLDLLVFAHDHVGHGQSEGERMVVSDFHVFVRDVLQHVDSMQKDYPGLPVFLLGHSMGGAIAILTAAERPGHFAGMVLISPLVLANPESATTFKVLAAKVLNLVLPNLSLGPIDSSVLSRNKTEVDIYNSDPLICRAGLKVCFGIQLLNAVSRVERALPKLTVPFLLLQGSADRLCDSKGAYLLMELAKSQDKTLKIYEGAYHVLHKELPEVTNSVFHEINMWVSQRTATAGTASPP
Assay: In vitro MGL activity assay: [glycerol-1,3-3H]-oleyl glycerol cleavage by MGL from HeLa cells
Type: biochemical
Settings: 300 nM [Glycerol-1,3-3H]-oleyl glycerol, one hour incubation
Description: MGL is the predominant hydrolase in HeLa cells/cell homogenates.

Row | IC50 | Structure (SMILES)
1 | 1300 nM | C[C@H]1c2nn(C)c(-c3cccnc3)c2CCN1C(=O)c1ccc2nccnc2c1 [Example 108, (S)-(2,7-Dimethyl-3-(pyridin-3-yl)-2,4,5,7-tetrahydro-6H-pyrazolo[3,4-c]pyridin-6-yl)(quinoxalin-6-yl)methanone]
2 | 721 nM | C[C@H]1c2nn(C)c(-c3cncc(F)c3)c2CCN1C(=O)c1ccc2nccnc2c1 [Example 109, (S)-(3-(5-Fluoropyridin-3-yl)-2,7-dimethyl-2,4,5,7-tetrahydro-6H-pyrazolo[3,4-c]pyridin-6-yl)(quinoxalin-6-yl)methanone]
3 | 236 nM | CC1c2nn(-c3ccccc3)c(-c3ccccc3)c2CCN1C(=O)c1ccc2ncccc2c1 (centres unmarked) [Example 113, (7-Methyl-2,3-diphenyl-2,4,5,7-tetrahydro-6H-pyrazolo[3,4-c]pyridin-6-yl)(quinolin-6-yl)methanone]
4 | 199 nM | C[C@H]1c2nn(C)c(-c3cccc(Cl)c3)c2CCN1C(=O)c1cc(Cl)cc(OC(F)(F)F)c1 [Example 116, (S)-(3-Chloro-5-(trifluoromethoxy)phenyl)(3-(3-chlorophenyl)-2,7-dimethyl-2,4,5,7-tetrahydro-6H-pyrazolo[3,4-c]pyridin-6-yl)methanone]
5 | 56.7 nM | C[C@H]1c2nn(C)c(-c3cccc(Cl)c3)c2CCN1C(=O)c1ncn(-c2ccccc2)n1 [Example 117, (S)-(3-(3-Chlorophenyl)-2,7-dimethyl-2,4,5,7-tetrahydro-6H-pyrazolo[3,4-c]pyridin-6-yl)(1-phenyl-1H-1,2,4-triazol-3-yl)methanone]
6 | 13.8 nM | CCc1nc(C(=O)N2CCc3c(nn(C)c3-c3cccc(Cl)c3)[C@@H]2C)nn1-c1ccccc1F [Example 118, (S)-(3-(3-Chlorophenyl)-2,7-dimethyl-2,4,5,7-tetrahydro-6H-pyrazolo[3,4-c]pyridin-6-yl)(5-ethyl-1-(2-fluorophenyl)-1H-1,2,4-triazol-3-yl)methanone]
7 | 398 nM | C[C@H]1c2nn(C)c(-c3cccc(Cl)c3)c2CCN1C(=O)c1cc(CO)ccn1 [Example 119, (S)-(3-(3-Chlorophenyl)-2,7-dimethyl-2,4,5,7-tetrahydro-6H-pyrazolo[3,4-c]pyridin-6-yl)(4-(hydroxymethyl)pyridin-2-yl)methanone]
8 | 174 nM | COCc1cncc(C(=O)N2CCc3c(nn(C)c3-c3cccc(Cl)c3)[C@@H]2C)c1 [Example 120, (S)-(3-(3-Chlorophenyl)-2,7-dimethyl-2,4,5,7-tetrahydro-6H-pyrazolo[3,4-c]pyridin-6-yl)(5-(methoxymethyl)pyridin-3-yl)methanone]
9 | 330 nM | CC(C)Oc1ccc(C(=O)N2CCc3c(nn(C)c3-c3cccc(Cl)c3)[C@@H]2C)cn1 [Example 121, (S)-(3-(3-Chlorophenyl)-2,7-dimethyl-2,4,5,7-tetrahydro-6H-pyrazolo[3,4-c]pyridin-6-yl)(6-isopropoxypyridin-3-yl)methanone]
10 | 78.2 nM | CC(C)Oc1cncc(C(=O)N2CCc3c(nn(C)c3-c3cccc(Cl)c3)[C@@H]2C)c1 [Example 122, (S)-(3-(3-Chlorophenyl)-2,7-dimethyl-2,4,5,7-tetrahydro-6H-pyrazolo[3,4-c]pyridin-6-yl)(5-isopropoxypyridin-3-yl)methanone]
11 | 45.1 nM | C[C@H]1c2nn(C)c(-c3cccc(Cl)c3)c2CCN1C(=O)c1cccc2c1OCO2 [Example 123, (S)-Benzo[d][1,3]dioxol-4-yl(3-(3-chlorophenyl)-2,7-dimethyl-2,4,5,7-tetrahydro-6H-pyrazolo[3,4-c]pyridin-6-yl)methanone]
12 | 19.7 nM | C[C@H]1c2nn(C)c(-c3cccc(Cl)c3)c2CCN1C(=O)c1ccc2[nH]c(=O)oc2c1 [Example 124, (S)-6-(3-(3-Chlorophenyl)-2,7-dimethyl-4,5,6,7-tetrahydro-2H-pyrazolo[3,4-c]pyridine-6-carbonyl)benzo[d]oxazol-2(3H)-one]
13 | 9.52 nM | Cc1nc2ccc(C(=O)N3CCc4c(nn(C)c4-c4cccc(Cl)c4)[C@@H]3C)cc2o1 [Example 125, (S)-(3-(3-Chlorophenyl)-2,7-dimethyl-2,4,5,7-tetrahydro-6H-pyrazolo[3,4-c]pyridin-6-yl)(2-methylbenzo[d]oxazol-6-yl)methanone]
14 | 47.2 nM | C[C@H]1c2nn(C)c(-c3cccc(Cl)c3)c2CCN1C(=O)c1cc2ncccc2o1 [Example 129, (S)-(3-(3-Chlorophenyl)-2,7-dimethyl-2,4,5,7-tetrahydro-6H-pyrazolo[3,4-c]pyridin-6-yl)(furo[3,2-b]pyridin-2-yl)methanone]
15 | 274 nM | C[C@H]1c2nn(C)c(-c3cccc(Cl)c3)c2CCN1C(=O)c1ccc2cc[nH]c2n1 [Example 130, (S)-(3-(3-Chlorophenyl)-2,7-dimethyl-2,4,5,7-tetrahydro-6H-pyrazolo[3,4-c]pyridin-6-yl)(1H-pyrrolo[2,3-b]pyridin-6-yl)methanone]
16 | 46.2 nM | C[C@H]1c2nn(C)c(-c3cccc(Cl)c3)c2CCN1C(=O)c1ccc2ncccc2n1 [Example 131, (S)-(3-(3-Chlorophenyl)-2,7-dimethyl-2,4,5,7-tetrahydro-6H-pyrazolo[3,4-c]pyridin-6-yl)(1,5-naphthyridin-2-yl)methanone]
17 | 10.6 nM | C[C@H]1c2nn(C)c(-c3cccc(Cl)c3)c2CCN1C(=O)c1cc(Br)c2nccnc2c1 [Example 135, (S)-(8-Bromoquinoxalin-6-yl)(3-(3-chlorophenyl)-2,7-dimethyl-2,4,5,7-tetrahydro-6H-pyrazolo[3,4-c]pyridin-6-yl)methanone]
18 | 31.4 nM | CCC1c2nn(C)c(-c3cccc(F)c3)c2CCN1C(=O)c1ccc2ncccc2c1 (centres unmarked) [Example 136, (7-Ethyl-3-(3-fluorophenyl)-2-methyl-2,4,5,7-tetrahydro-6H-pyrazolo[3,4-c]pyridin-6-yl)(quinolin-6-yl)methanone]
19 | 240 nM | C[C@H]1c2nn(C)c(-c3cc(F)cc(F)c3)c2CCN1C(=O)c1ccccc1OCCF [Example 137, [(7S)-3-(3,5-Difluorophenyl)-2,7-dimethyl-5,7-dihydro-4H-pyrazolo[3,4-c]pyridin-6-yl]-[2-(2-fluoroethoxy)phenyl]methanone]
20 | 39.5 nM | C[C@H]1c2nn(C)c(-c3cc(F)cc(F)c3)c2CCN1C(=O)c1ccc(OCCF)cc1 [Example 138, (S)-(3-(3,5-Difluorophenyl)-2,7-dimethyl-2,4,5,7-tetrahydro-6H-pyrazolo[3,4-c]pyridin-6-yl)(4-(2-fluoroethoxy)phenyl)methanone]
21 | 9.8 nM | C[C@H]1c2nn(C)c(-c3cc(F)cc(F)c3)c2CCN1C(=O)c1cccc(OCCF)c1 [Example 139, (S)-(3-(3,5-Difluorophenyl)-2,7-dimethyl-2,4,5,7-tetrahydro-6H-pyrazolo[3,4-c]pyridin-6-yl)(3-(2-fluoroethoxy)phenyl)methanone]
22 | 1.72 nM | C[C@H]1c2nn(C)c(-c3cc(F)cc(F)c3)c2CCN1C(=O)c1cccc(OCCF)c1F [Example 141, (S)-(3-(3,5-Difluorophenyl)-2,7-dimethyl-2,4,5,7-tetrahydro-6H-pyrazolo[3,4-c]pyridin-6-yl)(2-fluoro-3-(2-fluoroethoxy)phenyl)methanone]
23 | 3.7 nM | C[C@H]1c2nn(C)c(-c3cc(F)cc(F)c3)c2CCN1C(=O)c1cc(OCCF)ccc1F [Example 142, (S)-(3-(3,5-Difluorophenyl)-2,7-dimethyl-2,4,5,7-tetrahydro-6H-pyrazolo[3,4-c]pyridin-6-yl)(2-fluoro-5-(2-fluoroethoxy)phenyl)methanone]
24 | 4.21 nM | C[C@H]1c2nn(C)c(-c3cc(F)cc(F)c3)c2CCN1C(=O)c1cc(F)cc(OCCF)c1 [Example 143, (S)-(3-(3,5-Difluorophenyl)-2,7-dimethyl-2,4,5,7-tetrahydro-6H-pyrazolo[3,4-c]pyridin-6-yl)(3-fluoro-5-(2-fluoroethoxy)phenyl)methanone]
25 | 55 nM | C[C@H]1c2nn(C)c(-c3cc(F)cc(F)c3)c2CCN1C(=O)c1ccc(F)c(OCCF)c1 [Example 144, (S)-(3-(3,5-Difluorophenyl)-2,7-dimethyl-2,4,5,7-tetrahydro-6H-pyrazolo[3,4-c]pyridin-6-yl)(4-fluoro-3-(2-fluoroethoxy)phenyl)methanone]
26 | 2.13 nM | C[C@H]1c2nn(C)c(-c3cc(F)cc(F)c3)c2CCN1C(=O)c1cccc(OCCF)c1Cl [Example 145, [2-Chloro-3-(2-fluoroethoxy)phenyl]-[(7S)-3-(3,5-difluorophenyl)-2,7-dimethyl-5,7-dihydro-4H-pyrazolo[3,4-c]pyridin-6-yl]methanone]
27 | 3.73 nM | C[C@H]1c2nn(C)c(-c3cc(F)cc(F)c3)c2CCN1C(=O)c1cc(OCCF)ccc1Cl [Example 146, (2-Chloro-5-(2-fluoroethoxy)phenyl)(3-(3,5-difluorophenyl)-2,7-dimethyl-2,4,5,7-tetrahydro-6H-pyrazolo[3,4-c]pyridin-6-yl)methanone]
28 | 71.7 nM | C[C@H]1c2nn(C)c(-c3cc(F)cc(F)c3)c2CCN1C(=O)c1ccccc1-n1nccn1 [Example 147, (S)-(2-(2H-1,2,3-Triazol-2-yl)phenyl)(3-(3,5-difluorophenyl)-2,7-dimethyl-2,4,5,7-tetrahydro-6H-pyrazolo[3,4-c]pyridin-6-yl)methanone]
29 | 67.1 nM | CC1c2nn(C)c(-c3cc(F)cc(F)c3)c2CCN1C(=O)c1ncn(-c2ccccc2)n1 (centres unmarked) [Example 148, (3-(3,5-Difluorophenyl)-2,7-dimethyl-2,4,5,7-tetrahydro-6H-pyrazolo[3,4-c]pyridin-6-yl)(1-phenyl-1H-1,2,4-triazol-3-yl)methanone]
